From EP4745137A1 (Gluetacs Therapeutics (Shanghai) Co., Ltd., priority 2023, dated 2025) come the findings set out here.

One assay has as its system SR. The experiment in a line: Tumor cell proliferation inhibition (CellTiter-Meiluncell Luminescent Cell Viability Assay), SR. The conditions noted are these: Homo sapiens, read-out: inhibitory activity (IC50, nM) against tumor cells proliferation, SR.
A further assay concerns the target T1, IKZF1 (Homo sapiens, UniProt Q13422+Q96SW2).
T1 construct: endogenous in cells; host or cells: hPBMCs (Milecell Biotechnologies)
The assay can be described thus: Western-blot assay of substrate protein degradation in hPBMCs, IKZF1. The class given is cell-based. The conditions noted are these: 24 hours of compound treatment, compounds tested at 50 nM and 500 nM (concentration of the table not stated).

The next assay has as its target T2, GSPT1 (Homo sapiens, UniProt P15170+Q96SW2).
T2 construct: endogenous in cells; host or cells: hPBMCs (Milecell Biotechnologies)
The assay can be described thus: Western-blot assay of substrate protein degradation in hPBMCs, GSPT1. The class given is cell-based. The conditions noted are these: 24 hours of compound treatment, compounds tested at 50 nM and 500 nM (concentration of the table not stated).

The next assay has as its system MM.1S. The experiment in a line: Tumor cell proliferation inhibition (CellTiter-Meiluncell Luminescent Cell Viability Assay), MM.1S. The conditions noted are these: Homo sapiens, MM1.S, read-out: inhibitory activity (IC50, nM) against tumor cells proliferation, MM.1S.
Assay [1] concerns the target T3, human Cereblon WT GST-tagged protein (Homo sapiens, UniProt Q96SW2).
T3 construct: purchased CISBIO 64BDCRBNPEH
The experiment in a line: CRBN-binding affinity by HTRF (CEREBLON BINDING kit). The conditions noted are these: HTRF inhibitory activity, CEREBLON BINDING kit; read-out: HTRF IC50. Background: In TR-FRET formats the signal depends on donor and acceptor labels being close together.

A further assay deals with T4, CK1α (Homo sapiens, UniProt P48729+Q96SW2).
T4 construct: endogenous in cells; host or cells: hPBMCs (Milecell Biotechnologies)
T4 sequence (P48729 whole entry): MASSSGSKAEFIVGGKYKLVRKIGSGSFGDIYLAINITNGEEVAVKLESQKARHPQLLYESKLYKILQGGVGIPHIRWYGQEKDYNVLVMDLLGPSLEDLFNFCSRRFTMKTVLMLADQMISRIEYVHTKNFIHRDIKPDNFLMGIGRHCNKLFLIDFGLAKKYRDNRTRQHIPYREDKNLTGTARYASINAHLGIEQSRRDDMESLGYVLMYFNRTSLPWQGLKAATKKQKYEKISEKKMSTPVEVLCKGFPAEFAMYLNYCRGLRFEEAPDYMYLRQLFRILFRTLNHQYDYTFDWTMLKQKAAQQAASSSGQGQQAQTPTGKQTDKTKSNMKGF
T4 sequence (Q96SW2 whole entry): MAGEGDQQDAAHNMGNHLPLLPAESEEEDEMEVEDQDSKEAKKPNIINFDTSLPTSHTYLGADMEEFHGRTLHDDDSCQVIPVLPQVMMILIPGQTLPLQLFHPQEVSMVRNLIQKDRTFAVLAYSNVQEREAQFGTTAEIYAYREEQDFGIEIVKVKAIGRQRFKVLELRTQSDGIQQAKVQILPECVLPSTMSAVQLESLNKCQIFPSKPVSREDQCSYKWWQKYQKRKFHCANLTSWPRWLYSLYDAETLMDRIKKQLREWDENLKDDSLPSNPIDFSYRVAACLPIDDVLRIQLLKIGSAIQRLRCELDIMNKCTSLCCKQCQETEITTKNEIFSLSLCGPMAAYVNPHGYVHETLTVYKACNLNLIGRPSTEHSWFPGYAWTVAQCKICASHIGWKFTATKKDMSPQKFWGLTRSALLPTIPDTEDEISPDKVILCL
T4 sequence (Q16531 whole entry partner): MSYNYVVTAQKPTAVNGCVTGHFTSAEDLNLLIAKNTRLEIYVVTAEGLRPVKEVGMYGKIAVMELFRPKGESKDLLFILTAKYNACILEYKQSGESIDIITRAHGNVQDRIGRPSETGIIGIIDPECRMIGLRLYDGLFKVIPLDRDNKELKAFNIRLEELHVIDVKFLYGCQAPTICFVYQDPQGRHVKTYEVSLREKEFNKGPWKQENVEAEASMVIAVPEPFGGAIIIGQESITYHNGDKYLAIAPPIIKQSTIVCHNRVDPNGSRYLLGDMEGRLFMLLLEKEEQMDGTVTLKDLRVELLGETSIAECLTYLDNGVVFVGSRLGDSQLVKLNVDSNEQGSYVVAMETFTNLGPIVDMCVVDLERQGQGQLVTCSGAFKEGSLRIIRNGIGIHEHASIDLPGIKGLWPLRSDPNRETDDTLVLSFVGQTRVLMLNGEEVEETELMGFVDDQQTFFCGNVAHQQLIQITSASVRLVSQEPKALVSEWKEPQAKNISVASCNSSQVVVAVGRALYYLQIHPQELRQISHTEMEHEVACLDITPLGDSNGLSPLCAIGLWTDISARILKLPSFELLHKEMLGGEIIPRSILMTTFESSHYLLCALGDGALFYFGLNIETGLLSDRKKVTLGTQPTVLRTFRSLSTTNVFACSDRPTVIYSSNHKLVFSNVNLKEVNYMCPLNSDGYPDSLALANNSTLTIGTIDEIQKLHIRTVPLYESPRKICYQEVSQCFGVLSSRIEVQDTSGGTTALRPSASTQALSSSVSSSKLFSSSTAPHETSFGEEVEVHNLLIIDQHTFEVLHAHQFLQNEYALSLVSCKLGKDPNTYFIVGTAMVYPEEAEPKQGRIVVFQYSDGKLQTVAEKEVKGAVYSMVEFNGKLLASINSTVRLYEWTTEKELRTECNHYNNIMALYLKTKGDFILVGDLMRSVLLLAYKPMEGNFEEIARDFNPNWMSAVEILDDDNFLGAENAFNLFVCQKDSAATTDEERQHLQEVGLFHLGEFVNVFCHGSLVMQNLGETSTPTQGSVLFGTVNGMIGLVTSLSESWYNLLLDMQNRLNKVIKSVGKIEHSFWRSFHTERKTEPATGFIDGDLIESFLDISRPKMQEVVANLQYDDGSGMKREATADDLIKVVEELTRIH
The assay can be described thus: Western-blot assay of substrate protein degradation in hPBMCs, CK1α. The conditions noted are these: 24 hours of compound treatment, compounds tested at 50 nM and 500 nM (concentration of the table not stated). The format is cell-based.

The target in another assay is T5, WEE1 (Homo sapiens, UniProt P30291+Q96SW2).
T5 construct: endogenous in cells; host or cells: hPBMCs (Milecell Biotechnologies)
The assay can be described thus: Western-blot assay of substrate protein degradation in hPBMCs, WEE1. The class given is cell-based. The conditions noted are these: 24 hours of compound treatment, compounds tested at 50 nM and 500 nM (concentration of the table not stated).

The test system of the next assay is Jurkat. The assay can be described thus: Tumor cell proliferation inhibition (CellTiter-Meiluncell Luminescent Cell Viability Assay), Jurkat. The conditions noted are these: Homo sapiens, read-out: inhibitory activity (IC50, nM) against tumor cells proliferation, Jurkat.
For another assay, the target named is T6, IKZF2 (Homo sapiens, UniProt Q96SW2+Q9UKS7).
T6 construct: endogenous in cells; host or cells: hPBMCs (Milecell Biotechnologies)
T6 sequence (Q9UKS7 whole entry): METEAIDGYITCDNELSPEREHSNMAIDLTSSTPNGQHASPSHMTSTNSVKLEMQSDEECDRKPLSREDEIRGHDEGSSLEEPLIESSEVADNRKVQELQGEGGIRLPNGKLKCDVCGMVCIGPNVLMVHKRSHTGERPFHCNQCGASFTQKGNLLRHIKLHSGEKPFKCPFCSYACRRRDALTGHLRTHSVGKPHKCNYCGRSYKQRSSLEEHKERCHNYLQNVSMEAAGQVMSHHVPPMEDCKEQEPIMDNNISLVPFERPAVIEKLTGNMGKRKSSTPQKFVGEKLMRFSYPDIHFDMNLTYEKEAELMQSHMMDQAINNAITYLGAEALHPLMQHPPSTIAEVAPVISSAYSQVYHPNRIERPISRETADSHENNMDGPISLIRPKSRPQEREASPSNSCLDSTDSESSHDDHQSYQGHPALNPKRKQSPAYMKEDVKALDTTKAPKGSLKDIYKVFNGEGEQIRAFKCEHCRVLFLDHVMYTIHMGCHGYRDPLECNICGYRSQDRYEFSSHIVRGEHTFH
T6 sequence (Q96SW2 whole entry): as the sequence (Q96SW2 whole entry) above
T6 sequence (Q16531 whole entry partner): as the sequence (Q16531 whole entry partner) above
The assay can be described thus: Western-blot assay of substrate protein degradation in hPBMCs, IKZF2. The format is cell-based. The conditions noted are these: 24 hours of compound treatment, compounds tested at 50 nM and 500 nM (concentration of the table not stated).

The next assay deals with T7, IKZF3 (Homo sapiens, UniProt Q96SW2+Q9UKT9).
T7 construct: endogenous in cells; host or cells: hPBMCs (Milecell Biotechnologies)
T7 sequence (Q9UKT9 whole entry): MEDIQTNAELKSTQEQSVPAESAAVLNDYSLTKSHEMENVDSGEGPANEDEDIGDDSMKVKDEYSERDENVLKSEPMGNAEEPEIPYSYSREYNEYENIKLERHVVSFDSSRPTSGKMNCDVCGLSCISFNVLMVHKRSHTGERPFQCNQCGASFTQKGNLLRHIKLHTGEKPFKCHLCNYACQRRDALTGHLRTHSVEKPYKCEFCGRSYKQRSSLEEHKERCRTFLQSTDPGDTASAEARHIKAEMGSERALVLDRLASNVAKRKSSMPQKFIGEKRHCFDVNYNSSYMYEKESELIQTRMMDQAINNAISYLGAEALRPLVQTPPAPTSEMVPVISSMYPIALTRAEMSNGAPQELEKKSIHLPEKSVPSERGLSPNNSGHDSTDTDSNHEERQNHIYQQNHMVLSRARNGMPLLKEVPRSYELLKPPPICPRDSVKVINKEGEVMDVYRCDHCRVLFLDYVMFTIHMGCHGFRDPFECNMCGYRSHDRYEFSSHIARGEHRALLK
T7 sequence (Q96SW2 whole entry): as the sequence (Q96SW2 whole entry) above
T7 sequence (Q16531 whole entry partner): as the sequence (Q16531 whole entry partner) above
The assay can be described thus: Western-blot assay of substrate protein degradation in hPBMCs, IKZF3. The class given is cell-based. The conditions noted are these: 24 hours of compound treatment, compounds tested at 50 nM and 500 nM (concentration of the table not stated).

The subject of the next assay is NCI-H1975. The experiment in a line: Tumor cell proliferation inhibition (CellTiter-Meiluncell Luminescent Cell Viability Assay), NCI-H1975. The conditions noted are these: Homo sapiens, NCI-H1975, read-out: inhibitory activity (IC50, nM) against tumor cells proliferation, H1975.

T1 sequence (Q13422 whole entry): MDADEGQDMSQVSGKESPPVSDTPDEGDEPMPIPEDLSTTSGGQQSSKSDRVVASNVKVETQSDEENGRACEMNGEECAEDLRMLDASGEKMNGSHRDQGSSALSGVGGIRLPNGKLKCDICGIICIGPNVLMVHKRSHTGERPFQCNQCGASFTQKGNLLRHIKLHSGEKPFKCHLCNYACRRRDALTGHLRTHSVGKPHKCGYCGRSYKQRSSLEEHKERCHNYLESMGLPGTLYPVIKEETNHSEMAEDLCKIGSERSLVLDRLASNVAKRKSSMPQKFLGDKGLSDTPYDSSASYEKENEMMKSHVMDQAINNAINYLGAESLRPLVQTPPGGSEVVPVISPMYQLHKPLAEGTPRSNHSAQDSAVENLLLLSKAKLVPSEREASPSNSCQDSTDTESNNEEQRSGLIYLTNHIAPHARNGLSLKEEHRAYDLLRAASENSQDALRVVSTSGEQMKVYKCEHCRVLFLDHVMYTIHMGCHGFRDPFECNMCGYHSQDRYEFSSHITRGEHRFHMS
T1 sequence (Q96SW2 whole entry): as the sequence (Q96SW2 whole entry) above
T1 sequence (Q16531 whole entry partner): as the sequence (Q16531 whole entry partner) above
T3 sequence (Q96SW2 whole entry): as the sequence (Q96SW2 whole entry) above
T2 sequence (P15170 whole entry): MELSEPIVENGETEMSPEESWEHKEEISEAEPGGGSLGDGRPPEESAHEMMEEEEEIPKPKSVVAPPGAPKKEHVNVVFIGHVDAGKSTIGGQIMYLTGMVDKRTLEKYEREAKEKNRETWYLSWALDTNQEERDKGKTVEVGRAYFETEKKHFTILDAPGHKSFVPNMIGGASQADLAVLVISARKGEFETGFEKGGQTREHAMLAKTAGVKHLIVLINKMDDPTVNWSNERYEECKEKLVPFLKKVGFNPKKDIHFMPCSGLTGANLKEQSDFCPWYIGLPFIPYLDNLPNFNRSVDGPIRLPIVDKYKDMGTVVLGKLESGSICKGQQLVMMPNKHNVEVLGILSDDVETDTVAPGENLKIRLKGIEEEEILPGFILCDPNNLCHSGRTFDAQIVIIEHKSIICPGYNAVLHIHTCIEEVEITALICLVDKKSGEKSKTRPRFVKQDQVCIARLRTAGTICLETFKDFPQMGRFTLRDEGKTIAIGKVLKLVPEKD
T2 sequence (Q96SW2 whole entry): as the sequence (Q96SW2 whole entry) above
T2 sequence (Q16531 whole entry partner): as the sequence (Q16531 whole entry partner) above
Description for MM.1S: The tumor cells used herein were cultured in a cell culture medium listed in table 2 at 37°C in an incubator with 5% CO2. Prior to experimentation, all cell lines used were correctly identified by STR profiling, and tested negative for mycoplasma contamination using a mycoplasma detection kit through routine screenings.
On the following day, the test compounds of the present disclosure were subjected to serial dilution. […] Subsequently, 0.5 µL of the test compound dilution was transferred into the 96-well plate containing the cells, with each well containing 100 µL of cell culture medium. […] Into the 96-well plate, the diluted test compounds and corresponding detection reagents were added, resulting in final test compound concentrations of 500 nM and 10 nM, respectively.
After the cells were treated with the compounds of the present disclosure for a specified period (the treatment durations were shown in Table 3), the cell viability assay reagent was added to the culture medium according to the kit's instructions to determine cell viability. […] All controls were treated using the same procedure as the compounds of the present disclosure. The growth inhibition curves for the compounds of the present disclosure were plotted using Prism GraphPad software, and the IC50 values were calculated therefrom.

With `O=C1CCC(N2Cc3cc(CN4C5CCC4CN(c4cccc(Cl)c4Cl)C5)ccc3C2=O)C(=O)N1` (stereo not drawn) [GT-04855, 3-(5-((3-(2,3-dichlorophenyl)-3,8-diazabicyclo[3.2.1]octan-8-yl)methyl)-1-oxoisoindolin-2-yl)piperidine-2,6-dione], the IC50 with SR is 500 to 1000 nM; in the assay with MM.1S it was 5 to 10 nM; in [1], < 500 nM; with Jurkat, 50 to 100 nM; in the assay on NCI-H1975 it was 50 to 100 nM. Moreover, at IKZF1, the “IKZF 1 substrate protein remaining %” value is reported as “A (0% ≤ substrate protein remaining % ≤ 80%)”. Also, the “GSPT1 substrate protein remaining %” value at GSPT1 is given as “A (0% ≤ substrate protein remaining % ≤ 80%)”. Further, on CK1α, the “CK1a substrate protein remaining %” value is listed as “B (80%< substrate protein remaining %≤ 100%)”. In addition, the “Weel substrate protein remaining %” value at WEE1 is “A (0% ≤ substrate protein remaining % ≤ 80%)”. For the same compound, the “IKZF2 substrate protein remaining %” value at IKZF2 is given as “A (0% ≤ substrate protein remaining % ≤ 80%)”. The “IKZF3 substrate protein remaining %” value at IKZF3 is given as “A (0% ≤ substrate protein remaining % ≤ 80%)”.
With `Cn1cc(C2CCN(Cc3ccc4c(c3)CN(C3CCC(=O)NC3=O)C4=O)CC2)c2ccc(F)cc21` (stereo not drawn) [GT-04858, 3-(5-((4-(6-fluoro-1-methyl-1H-indol-3-yl)piperidin-1-yl)methyl)-1-oxoisoindolin-2-yl)piperidine-2,6-dione], the IC50 is 5 to 10 nM in the assay with SR; < 1 nM in the assay with MM.1S; < 500 nM in assay [1]; 1 to 5 nM with Jurkat; 1 to 5 nM with NCI-H1975. For the same compound, on IKZF1, the “IKZF 1 substrate protein remaining %” value is on record as “A (0% ≤ substrate protein remaining % ≤ 80%)”. Moreover, on GSPT1, the “GSPT1 substrate protein remaining %” value is reported as “A (0% ≤ substrate protein remaining % ≤ 80%)”. Besides, the “CK1a substrate protein remaining %” value at CK1α was “B (80%< substrate protein remaining %≤ 100%)”. Moreover, the “Weel substrate protein remaining %” value on WEE1 is recorded as “A (0% ≤ substrate protein remaining % ≤ 80%)”. Further, at IKZF2, the “IKZF2 substrate protein remaining %” value was “A (0% ≤ substrate protein remaining % ≤ 80%)”. Further, at IKZF3, the “IKZF3 substrate protein remaining %” value is reported as “A (0% ≤ substrate protein remaining % ≤ 80%)”.
`O=C1CCC(N2Cc3cc(CN4CC=C(c5cccc6c(F)cccc56)CC4)ccc3C2=O)C(=O)N1` (stereo not drawn) [GT-04902, 3-(5-((4-(5-fluoronaphthalen-1-yl)-3,6-dihydropyridin-1(2H)-yl)methyl)-1-oxoisoindolin-2-yl)piperidine-2,6-dione]: the IC50 is 5 to 10 nM in the assay on SR; < 1 nM with MM.1S; < 500 nM in assay [1]; 1 to 5 nM in the assay on Jurkat; 1 to 5 nM with NCI-H1975. In addition, the “IKZF 1 substrate protein remaining %” value on IKZF1 is recorded as “A (0% ≤ substrate protein remaining % ≤ 80%)”. For the same compound, on GSPT1, the “GSPT1 substrate protein remaining %” value is on record as “A (0% ≤ substrate protein remaining % ≤ 80%)”. In addition, the “CK1a substrate protein remaining %” value on CK1α was “A (0% ≤ substrate protein remaining % ≤ 80%)”. The “Weel substrate protein remaining %” value on WEE1 is recorded as “A (0% ≤ substrate protein remaining % ≤ 80%)”. Besides, the “IKZF2 substrate protein remaining %” value on IKZF2 was “A (0% ≤ substrate protein remaining % ≤ 80%)”. In addition, at IKZF3, the “IKZF3 substrate protein remaining %” value is reported as “A (0% ≤ substrate protein remaining % ≤ 80%)”.
For the compound `O=C1CCC(N2Cc3cc(CN4CC=C(c5ncnc6sc7c(c56)CCC7)CC4)ccc3C2=O)C(=O)N1` (stereo not drawn) [GT-04934, 3-(5-((4-(6,7-dihydro-5H-cyclopenta[4,5]thieno[2,3-d]pyrimidin-4-yl)-3,6-dihydropyridin-1(2H)-yl)methyl)-1-oxoisoindolin-2-yl)piperidine-2,6-dione], the IC50 is 100 to 500 nM in the assay with SR; < 1 nM with MM.1S; < 500 nM in assay [1]; 10 to 50 nM with Jurkat; 50 to 100 nM in the assay with NCI-H1975. Besides, the “IKZF 1 substrate protein remaining %” value on IKZF1 is “A (0% ≤ substrate protein remaining % ≤ 80%)”. At GSPT1, the “GSPT1 substrate protein remaining %” value is listed as “A (0% ≤ substrate protein remaining % ≤ 80%)”. The “CK1a substrate protein remaining %” value on CK1α is reported as “A (0% ≤ substrate protein remaining % ≤ 80%)”. The “Weel substrate protein remaining %” value on WEE1 is recorded as “A (0% ≤ substrate protein remaining % ≤ 80%)”. Moreover, the “IKZF2 substrate protein remaining %” value at IKZF2 is listed as “A (0% ≤ substrate protein remaining % ≤ 80%)”. Also, the “IKZF3 substrate protein remaining %” value at IKZF3 is on record as “A (0% ≤ substrate protein remaining % ≤ 80%)”.
`CC(C)c1cc2c(C3=CCN(Cc4ccc5c(c4)CN(C4CCC(=O)NC4=O)C5=O)CC3)ncnc2s1` (stereo not drawn) [GT-04935, 3-(5-((4-(6-isopropylthieno[2,3-d]pyrimidin-4-yl)-3,6-dihydropyridin-1(2H)-yl)methyl)-1-oxoisoindolin-2-yl)piperidine-2,6-dione]: the IC50 in the assay on SR was 10 to 50 nM; with MM.1S, < 1 nM; in assay [1], < 500 nM; in the assay on Jurkat, 1 to 5 nM; in the assay on NCI-H1975, 1 to 5 nM. Also, the “IKZF 1 substrate protein remaining %” value at IKZF1 is listed as “A (0% ≤ substrate protein remaining % ≤ 80%)”. Moreover, on GSPT1, the “GSPT1 substrate protein remaining %” value is “A (0% ≤ substrate protein remaining % ≤ 80%)”. Besides, the “CK1a substrate protein remaining %” value on CK1α is on record as “A (0% ≤ substrate protein remaining % ≤ 80%)”. The “Weel substrate protein remaining %” value on WEE1 is on record as “A (0% ≤ substrate protein remaining % ≤ 80%)”. Also, the “IKZF2 substrate protein remaining %” value on IKZF2 was “A (0% ≤ substrate protein remaining % ≤ 80%)”. In addition, the “IKZF3 substrate protein remaining %” value on IKZF3 is “A (0% ≤ substrate protein remaining % ≤ 80%)”.
With `O=C1CCC(N2Cc3cc(CN4CC=C(c5ncnc6sc(-c7ccccc7)cc56)CC4)ccc3C2=O)C(=O)N1` (stereo not drawn) [GT-05101, 3-(1-oxo-5-((4-(6-phenylthieno[2,3-d]pyrimidin-4-yl)-3,6-dihydropyridin-1(2H)-yl)methyl)isoindolin-2-yl)piperidine-2,6-dione], the IC50 with SR is 5 to 10 nM; in the assay with MM.1S it was < 1 nM; in [1], 500 to 1000 nM; in the assay with Jurkat, 1 to 5 nM; in the assay with NCI-H1975, 1 to 5 nM. Besides, at IKZF1, the “IKZF 1 substrate protein remaining %” value was “A (0% ≤ substrate protein remaining % ≤ 80%)”. Moreover, the “GSPT1 substrate protein remaining %” value on GSPT1 is “A (0% ≤ substrate protein remaining % ≤ 80%)”. Also, at CK1α, the “CK1a substrate protein remaining %” value is recorded as “B (80%< substrate protein remaining %≤ 100%)”. For the same compound, on WEE1, the “Weel substrate protein remaining %” value is “A (0% ≤ substrate protein remaining % ≤ 80%)”. Also, on IKZF2, the “IKZF2 substrate protein remaining %” value is given as “A (0% ≤ substrate protein remaining % ≤ 80%)”. Moreover, at IKZF3, the “IKZF3 substrate protein remaining %” value is given as “A (0% ≤ substrate protein remaining % ≤ 80%)”.
